Measurements as given in patent publication US20130204033A1, “ANTIPROLIFERATIVE COMPOUNDS, CONJUGATES THEREOF, METHODS THEREFOR, AND USES THEREOF” (Medarex, Inc., priority 2009, published 2013).
pEC50: −log10 of the molar value. Where two headings read alike, the source gives them in different places.

Assays:
Assay type in all cases: cell-based, human
[1] = test system: MDA-MB-231; experiment: 3H thymidine proliferation assay, MDA-MB-231
Method: (§1) This example generally describes the procedures used to assay the antiproliferative activity of compounds of this invention or their conjugates. Human tumor cell lines were obtained from the American Type Culture Collection (ATCC), P.O. Box 1549, Manassas, Va. 20108, USA, and cultured according to instruction from the ATCC. Cells were seeded at 1.0×10^3 or 1.0×10^4 cells/well in 96-well plates for 3 h for ATP assays or ^3H thymidine assays, respectively. 1:3 serial dilutions of free (unconjugated) compounds or their conjugates were added to the wells. Plates were allowed to incubate for 24 to 72 h. The ^3H thymidine plates were pulsed with 1.0 μCi of ^3H-thymidine per well for the last 24 hours of the total incubation period, harvested, and read on a Top Count Scintillation Counter (Packard Instruments, Meriden, Conn.). ATP levels in the ATP plates were measured using the […]-GLO® Luminescent Cell Viability kit following the manufacturer's manual and read on a GLOMAX® 20/20 luminometer (both from Promega, Madison, Wis., USA). The EC50 values—the concentration at which an agent inhibits or reduces cell proliferation by 50% —were determined using PRISM™ software, version 4.0 (GraphPad Software, La Jolla, Calif., USA).
(§2) Using the ^3H thymidine or the ATP luminescence assay, or both, the activities of compounds of this invention were assayed against the following cancer cell lines: HCT-15 (colorectal cancer, multi-drug resistant (MDR)); Hep3B (liver cancer); LNCaP (prostate cancer, androgen receptor positive (AR^+)); MDA-MB-231 (breast cancer, estrogen receptor, progesterone receptor, and Her2 negative (triple negative)); A2058 (melanoma); U-87 MG (glioblastoma); NCI-H460 (NSCLC); A549 (NSCLC); HPAC (pancreatic cancer, primary); PC3 (prostate cancer, AR); BT474 (breast cancer, Her2 highly positive (Her2hi)); SKOV3 (ovarian cancer, Her2hi); 786-O (renal cancer); UO-31 (renal cancer, MDR); NCI-H740 (SCLC); DMS53 (SCLC); SK-BR3 (breast cancer, Her2hi); ZR-75 (breast cancer, estrogen receptor positive); OVCAR3 (ovarian cancer); HL-60 (APL); OVCAR8/Adr (ovarian cancer, MDR); CEM-Cl (ALL); Nomo-1 (AML); RPMI-8226 (MM)); Raji (lymphoma); SW-480 (colorectal cancer, metastatic); SW-620 (colorectal cancer); and H226 (lung cancer). (Not all compounds were assayed against all cell lines.)
(§3) Table 2 provides the data for proliferation assays using the ^3H thymidine method, with an incubation period of 72 h.

[2] = test system: RPMI-8226; experiment: 3H thymidine proliferation assay, RPMI-8226
Method: as §1, §2, §3

[3] = test system: U-87 MG; experiment: 3H thymidine proliferation assay, U-87 MG
Method: as §1, §2, §3

[4] = test system: Nomo-1; experiment: ATP luminescence proliferation assay, Nomo-1
Method: as §1, §2
(§4) Table 3 provides the data for the ATP luminescence proliferation assays, with an incubation period of 48, 72, or 96 h, as noted.

[5] = test system: CEM-C1; experiment: 3H thymidine proliferation assay, CEM-C1
Method: as §1, §2, §3

[6] = test system: DMS53; experiment: ATP luminescence proliferation assay, DMS53
Method: as §1, §2, §4

[7] = test system: SW-480; experiment: ATP luminescence proliferation assay, SW-480
Method: as §1, §2, §4

[8] = test system: SKOV3; experiment: ATP luminescence proliferation assay, SKOV3
Method: as §1, §2, §4

[9] = test system: Hep3B; experiment: ATP luminescence proliferation assay, Hep3B
Method: as §1, §2, §4

[10] = test system: HPAC; experiment: ATP luminescence proliferation assay, HPAC
Method: as §1, §2, §4

[11] = test system: UO-31; experiment: ATP luminescence proliferation assay, UO-31
Method: as §1, §2, §4

[12] = test system: HCT-15; experiment: 3H thymidine proliferation assay, HCT-15
Method: as §1, §2, §3

[13] = test system: SK-BR3; experiment: ATP luminescence proliferation assay, SK-BR3
Method: as §1, §2, §4

[14] = test system: ZR-75; experiment: 3H thymidine proliferation assay, ZR-75
Method: as §1, §2, §3

[15] = test system: 786-O; experiment: ATP luminescence proliferation assay, 786-O
Outline: (§5)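 Cells seeded at 1.0×10^3 cells/well for 3 h, then exposed to 1:3 serial dilutions of free compounds or conjugates for 48, 72 or 96 h, as noted. ATP measured by luminescent cell viability kit; EC50 taken as concentration reducing proliferation by 50%.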

[16] = test system: LNCaP; experiment: 3H thymidine proliferation assay, LNCaP
Method: as §1, §2, §3

[17] = test system: HL-60; experiment: ATP luminescence proliferation assay, HL-60; conditions: Homo sapiens, HL-60, 72 h, read-out: EC50 HL-60 (72 h), ATP luminescence, HL-60, 72 h incubation
Outline: as §5

[18] = test system: Nomo-1; experiment: 3H thymidine proliferation assay, Nomo-1
Method: as §1, §2, §3

How did the pEC50 ([1]; Homo sapiens, MDA-MB-231, read-out: EC50, MDA-MB-231, 3H thymidine method, 72 h incubation) turn out when `CC[C@H](C)[C@H](NC(=O)[C@H]1CCCCN1C)C(=O)N(C)[C@H](C[C@@H](OC)c1nc(C(=O)N[C@@H](Cc2ccccc2)C(=O)N[C@@H](C)C(=O)OC)cs1)C(C)C` [Compound 24] was run?
Its pEC50 is 7.48.

And the pEC50 ([2]; Homo sapiens, RPMI-8226, read-out: EC50, RPMI-8226, 3H thymidine method, 72 h incubation)?
The pEC50 was 7.77.

What about the pEC50 ([3]; Homo sapiens, U-87 MG, read-out: EC50, U-87 MG, 3H thymidine method, 72 h incubation) of the same molecule?
Its pEC50 is 7.74.

And the pEC50 ([4]; Homo sapiens, NOMO-1, 72 h, read-out: EC50 Nomo-1 (72 h), ATP luminescence, Nomo-1, 72 h incubation)?
The pEC50 was 8.40.

And the pEC50 ([5]; Homo sapiens, CEM/C1, read-out: EC50, CEM-C1, 3H thymidine method, 72 h incubation)?
The pEC50 was 7.89.

And the pEC50 ([6]; Homo sapiens, DMS-53, 72 h, read-out: EC50 DMS53 (72 h), ATP luminescence, DMS53, 72 h incubation)?
The pEC50 was < 7.00.

What about the pEC50 ([7]; Homo sapiens, SW480, 96 h, read-out: EC50 SW480 (96 h), ATP luminescence, SW480, 96 h incubation) of the same molecule?
Its pEC50 is 7.38.

And the pEC50 ([8]; Homo sapiens, SK-OV-3, 72 h, read-out: EC50 SKOV3 (72 h), ATP luminescence, SKOV3, 72 h incubation)?
Its pEC50 is 7.89.

What about the pEC50 ([9]; Homo sapiens, 48 h, read-out: EC50 Hep3B (48 h), ATP luminescence, Hep3B, 48 h incubation) of the same molecule?
Its pEC50 is 8.00.

And the pEC50 ([10]; Homo sapiens, 72 h, read-out: EC50 HPAC (72 h), ATP luminescence, HPAC, 72 h incubation)?
The pEC50 was 8.96.

And the pEC50 ([11]; Homo sapiens, UO-31, 48 h, read-out: EC50 UO-31 (48 h), ATP luminescence, UO-31, 48 h incubation)?
Its pEC50 is 7.89.

What about the pEC50 ([12]; Homo sapiens, HCT-15, read-out: EC50, HCT-15, 3H thymidine method, 72 h incubation) of the same molecule?
Its pEC50 is 6.15.

What about the pEC50 ([13]; Homo sapiens, SK-BR-3, 48 h, read-out: EC50 SK-BR3 (48 h), ATP luminescence, SK-BR3, 48 h incubation) of the same molecule?
Its pEC50 is 8.05.

And the pEC50 ([14]; Homo sapiens, ZR75, read-out: EC50, ZR-75, 3H thymidine method, 72 h incubation)?
Its pEC50 is 8.44.

What about the pEC50 ([15]; Homo sapiens, 786-0, 72 h, read-out: EC50 786-O (72 h), ATP luminescence, 786-O, 72 h incubation) of the same molecule?
Its pEC50 is 7.44.

And the pEC50 ([16]; Homo sapiens, LNCaP, read-out: EC50, LNCaP, 3H thymidine method, 72 h incubation)?
Its pEC50 is 7.12.

What about the pEC50 [17] of the same molecule?
Its pEC50 is 8.19.

And the pEC50 ([18]; Homo sapiens, NOMO-1, read-out: EC50, Nomo-1, 3H thymidine method, 72 h incubation)?
Its pEC50 is 8.96.

How did the pEC50 ([1]; 3H thymidine method, 72 h incubation, read-out: EC50, MDA-MB-231) turn out when `CC[C@H](C)[C@H](NC(=O)[C@H]1CCCCN1C)C(=O)N(C)[C@H](C[C@@H](OC)c1nc(C(=O)N[C@@H](Cc2ccc(N)cc2)CC(C)C(=O)O)cs1)C(C)C` (some centres unmarked) [Compound 51] was run?
Its pEC50 is 8.06.

What about the pEC50 ([2]; 3H thymidine method, 72 h incubation, read-out: EC50, RPMI-8226) of the same molecule?
Its pEC50 is 8.66.

What about the pEC50 ([3]; 3H thymidine method, 72 h incubation, read-out: EC50, U-87 MG) of the same molecule?
The pEC50 was 9.12.

What about the pEC50 ([4]; ATP luminescence, Nomo-1, 72 h incubation, read-out: EC50 Nomo-1 (72 h)) of the same molecule?
The pEC50 was 8.13.

What about the pEC50 ([5]; 3H thymidine method, 72 h incubation, read-out: EC50, CEM-C1) of the same molecule?
The pEC50 was 8.70.

And the pEC50 ([6]; ATP luminescence, DMS53, 72 h incubation, read-out: EC50 DMS53 (72 h))?
The pEC50 was 7.34.

What about the pEC50 ([7]; ATP luminescence, SW480, 96 h incubation, read-out: EC50 SW480 (96 h)) of the same molecule?
The pEC50 was 7.89.

What about the pEC50 ([8]; ATP luminescence, SKOV3, 72 h incubation, read-out: EC50 SKOV3 (72 h)) of the same molecule?
The pEC50 was 8.00.

What about the pEC50 ([9]; ATP luminescence, 48 h incubation, read-out: EC50 Hep3B (48 h)) of the same molecule?
Its pEC50 is 8.42.

And the pEC50 ([10]; ATP luminescence, 72 h incubation, read-out: EC50 HPAC (72 h))?
Its pEC50 is 8.35.

What about the pEC50 ([11]; ATP luminescence, UO-31, 48 h incubation, read-out: EC50 UO-31 (48 h)) of the same molecule?
The pEC50 was < 7.00.

And the pEC50 ([12]; 3H thymidine method, 72 h incubation, read-out: EC50, HCT-15)?
The pEC50 was 7.00.

And the pEC50 ([13]; ATP luminescence, SK-BR3, 48 h incubation, read-out: EC50 SK-BR3 (48 h))?
The pEC50 was 7.89.

And the pEC50 ([14]; 3H thymidine method, 72 h incubation, read-out: EC50, ZR-75)?
The pEC50 was 8.89.

What about the pEC50 ([15]; ATP luminescence, 786-O, 72 h incubation, read-out: EC50 786-O (72 h)) of the same molecule?
The pEC50 was 7.72.

What about the pEC50 ([16]; 3H thymidine method, 72 h incubation, read-out: EC50, LNCaP) of the same molecule?
The pEC50 was 7.39.

What about the pEC50 ([18]; 3H thymidine method, 72 h incubation, read-out: EC50, Nomo-1) of the same molecule?
Its pEC50 is 8.46.
